Several values for one entry are separate records, joined by “and”; a condition that tells them apart may be missing. Equal values may be shown once.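 Five concentrations, 48 hours, 96-well plates. GI50 is the concentration that inhibits growth by half. TGI marks complete inhibition of growth.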
Tests used:
Experiment in all cases: NCI anticancer screen, dose series, 48 h
786-0 renal = tested on: 786-0 renal
CCRF-CEM leukemia = tested on: CCRF-CEM leukemia
EKVX NSCLC = tested on: EKVX NSCLC
K-562 leukemia = tested on: K-562 leukemia
MALME-3M melanoma = tested on: MALME-3M melanoma
NCI/ADR-RES ovarian = tested on: NCI/ADR-RES ovarian
SK-MEL-28 melanoma = tested on: SK-MEL-28 melanoma
SR leukemia = tested on: SR leukemia
TK-10 renal = tested on: TK-10 renal
UO-31 renal = tested on: UO-31 renal

| Compound | GI50 (786-0 renal) | TGI (786-0 renal) | GI50 (CCRF-CEM leukemia) | TGI (CCRF-CEM leukemia) | GI50 (EKVX NSCLC) [µM] | TGI (EKVX NSCLC) [µM] | GI50 (K-562 leukemia) | TGI (K-562 leukemia) | GI50 (MALME-3M melanoma) | TGI (MALME-3M melanoma) | GI50 (NCI/ADR-RES ovarian) | TGI (NCI/ADR-RES ovarian) | GI50 (SK-MEL-28 melanoma) | TGI (SK-MEL-28 melanoma) | GI50 (SR leukemia) | TGI (SR leukemia) | GI50 (TK-10 renal) | TGI (TK-10 renal) | GI50 (UO-31 renal) | TGI (UO-31 renal) |
| --- | --- | --- | --- | --- | --- | --- | --- | --- | --- | --- | --- | --- | --- | --- | --- | --- | --- | --- | --- | --- |
| CS(=O)(=O)CCNCc1ccc(-c2ccc3ncnc(Nc4ccc(OCc5cccc(F)c5)c(C(F)(F)F)c4)c3c2)o1 | 4.68 µM | 11.1 µM | 4.8 µM | 13.9 µM | 3.12 | 9.94 | 5.07 µM | 20 µM | 2.74 µM | 4.11 µM | 5.54 µM | 20.7 µM | 3.71 µM | 7.2 µM | 6.34 µM | 19.4 µM | 4.65 µM | 9.82 µM | 3.36 µM | 8.42 µM |
| N#CSc1c[nH]c2ccc(/C=C/C(=O)/C=C(/C=C/c3ccc4[nH]cc(SC#N)c4c3)OB(F)F)cc12 | 0.343 µM | 3.44 µM | 0.267 µM | 4.4 µM | 0.535 | 3.53 | 0.281 µM | > 100 µM | 0.261 µM | 0.845 µM | 1.74 µM | > 100 µM | 0.498 µM | 2.29 µM | 0.128 µM |  | 0.698 µM | 14.8 µM | 0.212 µM | 0.808 µM |
| Fc1ccc(-c2ncn(C3CCNCC3)c2-c2ccnc(Oc3ccc(F)c(F)c3)n2)cc1 | 8.97 µM | > 16.2 µM | > 14.9 µM | 24.2 µM | > 14.6 | > 25 | 7.56 µM | > 19.9 µM | 5.19 µM | 9.85 µM | 8.83 µM | > 25 µM | 4.57 µM | 8.79 µM | 6.23 µM | 13.4 µM | 5.09 µM | 11.1 µM | 6.25 µM | > 25 µM |
| CC(=O)N1c2ccccc2NC2=C(C(=O)N(Cc3ccccc3)C2(C)C)C1c1ccco1 (centres undefined) | 1.26 µM | > 23.1 µM | 0.258 µM | > 25 µM | 1.73 | > 25 | 0.166 µM | > 25 µM | 1.2 µM | > 25 µM | > 21.6 µM | > 25 µM | > 25 µM | > 25 µM | 0.463 µM | > 25 µM | 6.14 µM | > 25 µM | 1.23 µM | > 25 µM |
| Cc1nc(CN2CCCCC2)c(O)c(=O)[nH]1 |  | > 100 µM |  | > 100 µM |  | > 100 |  | > 100 µM |  | > 100 µM |  | > 100 µM |  | > 100 µM |  | > 100 µM |  | > 100 µM |  | > 100 µM |
| CCN(CC)CCCC(C)Nc1nc(C)cc(Nc2ccc3nc(C)cc(N)c3c2)n1 (centres undefined) | > 100 µM | > 100 µM | 15.3 µM | 41.6 µM | 53.3 | > 100 | 27.1 µM | 51.5 µM | 24.7 µM | 70.2 µM | > 100 µM | > 100 µM | 24.3 µM | 50.1 µM | 0.024 µM | 22.8 µM | > 100 µM | > 100 µM | 86.1 µM | > 100 µM |
| O=[N+]([O-])/C=C/c1cc2ccccc2[nH]1 |  | 27.9 µM |  | 9.61 µM |  | 78 |  | 52.8 µM |  | 59.8 µM |  | 98.2 µM |  | 44 µM |  | 26.8 µM |  | 32.2 µM |  | 31.9 µM |
| CCn1cc(-c2ccnc3[nH]ccc23)c(-c2cccc(NC(=O)Nc3ccc(OCc4ccccc4)cc3)c2)n1 | 6.82 µM | > 25 µM | 11.5 µM | > 25 µM | 21.8 | > 25 | 4.72 µM | > 25 µM | > 22.6 µM | > 25 µM | > 25 µM | > 25 µM | 18.1 µM | > 25 µM | 7.25 µM | > 25 µM | 24.8 µM | > 25 µM | 15 µM | > 25 µM |
| CN1C(=O)[C@@H](NC(=O)[C@H](CCC(F)(F)F)[C@H](CCC(F)(F)F)C(N)=O)N=C(c2ccccc2)c2ccccc21 | > 100 µM | > 100 µM | 55 µM | > 100 µM | 68 | > 100 | > 100 µM | > 100 µM | > 100 µM | > 100 µM | > 100 µM | > 100 µM | 59.7 µM | > 100 µM | 28.4 µM | > 100 µM | > 100 µM | > 100 µM | 49 µM | > 100 µM |
| S=C(Nc1ccc(Cl)cc1)Nc1ccc(-c2nc3ccccc3o2)cc1 | 26.3 µM | > 100 µM | 0.062 µM | 19.3 µM | 19.4 | 64 | 22.6 µM | > 100 µM | 23.8 µM | 59.9 µM | 21.8 µM | 58.7 µM | 20.6 µM | 43.2 µM | 19 µM | 52.3 µM | 21.2 µM | 74.1 µM | 11.6 µM | 26.1 µM |
| COc1cc2c(cc1OC)C(OC)N(C)c1c-2ccc2cc3c(cc12)OCO3 (centres undefined) |  | 5.47 µM |  | 13.4 µM |  | 15 |  | 33.2 µM |  | 20 µM |  | > 55.3 µM |  | 33.5 µM |  | > 75 µM |  | > 75 µM |  | 74.7 µM |
| Nc1ncnc2c1c(-c1cccc(OCc3ccccc3)c1)cn2C1CC(CN2CCC2)C1 (centres undefined) | 1.92 µM and 2.14 µM | 3.98 µM and 4.83 µM | 2.58 µM and 2.97 µM | 7.99 µM and > 10 µM | 7.88 | > 10 | 1.71 µM and 2.08 µM | 4.43 µM and 6.32 µM | 0.433 µM and 1.33 µM | 1.96 µM and 3.04 µM | 6.47 µM and 8.96 µM | 22.6 µM and > 10 µM | 1.33 µM and 1.63 µM | 2.78 µM and 3.52 µM | 2.22 µM and 1.69 µM | 6.08 µM and 4.18 µM | 2.02 µM and 2.85 µM | 7.74 µM and > 10 µM | 1.31 µM and 1.75 µM | 4.34 µM and 9.79 µM |
| O=c1c(O)cccc2cc(O)c(O)c(O)c12 | 62.1 µM | > 100 µM | 7.55 µM | > 100 µM | 19.1 | > 100 | 3.95 µM | > 100 µM | 4.99 µM | > 100 µM | 34.5 µM | > 100 µM | 32.3 µM | > 100 µM | 3.76 µM | > 100 µM | 55 µM | > 100 µM | 2.54 µM | > 100 µM |
| COc1ccc(-c2nc(C(=O)c3ccccc3)n(CC(=O)c3ccccc3)c2-c2ccc(OC)cc2)cc1 | > 100 µM | > 100 µM | > 100 µM | > 100 µM | > 100 | > 100 | > 100 µM | > 100 µM | > 100 µM | > 100 µM | > 100 µM | > 100 µM | > 100 µM | > 100 µM | > 100 µM | > 100 µM | > 100 µM | > 100 µM | > 100 µM | > 100 µM |
| O=C(O)c1cc2ccccc2oc1=O |  | > 100 µM |  | > 100 µM |  | > 100 |  | > 100 µM |  | > 100 µM |  | > 100 µM |  | > 100 µM |  | > 100 µM |  | > 100 µM |  | > 100 µM |
| CCCCCCCCCc1cc[n+](CC(=O)c2ccc([N+](=O)[O-])cc2)cc1 | 1.75 µM | 3.25 µM | 1.95 µM | 5.01 µM | 0.914 | 2.55 | 0.338 µM | 2.02 µM | 1.41 µM | 3.03 µM | 2.17 µM | 4.92 µM | 1.11 µM | 2.39 µM | 0.612 µM | 4.48 µM | 1.47 µM | 2.88 µM | 1.48 µM | 2.9 µM |
| CCN(CC)c1ccc2c(c1)Oc1nc(N)c(C#N)c(N)c1C2Sc1ccc(OC)cc1 (centres undefined) | 1.74 µM | 3.22 µM | 1.75 µM | 5.47 µM | 0.479 | 1.97 | 2.61 µM | 8.07 µM | 1.82 µM | 3.45 µM | 2.81 µM | 8.86 µM | 1.85 µM | 3.37 µM | 1.67 µM | 4.78 µM | 2.8 µM | 4.33 µM | 1.52 µM | 2.85 µM |
| Nc1ccccc1NC(=O)c1ccc(CCCC(=O)Nc2ccc(C3CC3N)cc2)cc1 (centres undefined) | 3.5 µM | 39.3 µM | 2.63 µM | > 100 µM | 4.47 | > 100 | 0.658 µM | > 100 µM | 0.559 µM | 7.2 µM | 45.7 µM | > 100 µM | 1.31 µM | 11.3 µM | 0.738 µM | > 100 µM | 0.36 µM | 26.8 µM | 4.62 µM | 20.6 µM |
| O=C(O)c1cc2ccccc2c(N=Nc2cc(C(F)(F)F)ccc2Cl)c1O |  | > 100 µM |  | > 100 µM |  | > 100 |  | > 100 µM |  | > 100 µM |  | > 100 µM |  | > 100 µM |  | > 100 µM |  | > 100 µM |  | > 100 µM |
| C[C@@H](CN1CC(=O)NC(=O)C1)N1CC(=O)NC(=O)C1 |  | 1120 µM |  | 1840 µM |  | 546 |  | 2500 µM |  | 1100 µM |  | 987 µM |  | 1750 µM |  | 1470 µM |  | 1110 µM |  | 1060 µM |
| Cc1cc(O)c(C2=NN(c3ccc(S(N)(=O)=O)cc3)C(c3ccc(N(C)C)cc3)C2)c(C)c1Cl (centres undefined) | 16.8 µM | 32.2 µM | 15.1 µM | 43.6 µM | 13.3 | 36.1 | 14 µM | 44.8 µM | 14.8 µM | 32.7 µM | 19.3 µM | 76.4 µM | 19.4 µM | 35.6 µM | 14.1 µM | 41 µM | 22.1 µM | 42.4 µM | 12.7 µM | 29.4 µM |
| CC(C)CC(=O)Nc1n[nH]c2c1CN(C(=O)C1CCN(C)CC1)C2(C)C | 2.07 µM | > 10 µM | 0.95 µM | > 10 µM | 1.14 | > 10 | 1.34 µM | > 10 µM | 6.95 µM | > 10 µM | > 10 µM | > 10 µM | 0.626 µM | > 10 µM | 0.135 µM | 2.59 µM | 2.81 µM | > 10 µM | > 10 µM | > 10 µM |
| O=C(Nc1ccccc1O)c1ccc(CNc2ccnc(C(F)(F)F)c2)cc1 | 3.36 µM | 13.6 µM | 0.354 µM | 12.8 µM | 4.19 | > 100 | 2.39 µM | > 100 µM | 1.03 µM | 11.6 µM | 2.41 µM | 54.4 µM | 3.52 µM | 23.4 µM | 2 µM | > 100 µM | 11.3 µM | 36 µM | 2.15 µM | 14 µM |
